# According to patent US8999942B2, “Polyol modified aminoglycoside-lipid conjugates” (University of Manitoba, priority 2010, dated 2015):
# Assays:
# [1] = tested on: Stenotrophomonas maltophilia (CAN-ICU 62585); assay: MIC, broth macrodilution (CLSI), S. maltophilia; assay type: cell-based; details: S. maltophilia, footnote CAN-ICU 62584
# Experimental: (§1) All compounds were tested against American Type Culture Collection (ATCC) reference strains as well as clinical isolates from the Canadian Intensive Care Unit (CAN-ICU) study (Zhanel, et al., 2008). […] Antibacterial activity against Gram-positive and Gram-negative microorganisms was performed via broth macrodilution tests using CLSI methodology (Clinical and Laboratory Standards Institute, 2006). The minimum inhibitory concentration (MIC) in μg/mL of the aminoglycoside-derived amphiphilic polycarbamates and polyethers were determined using established methods (Clinical and Laboratory Standards Institute, 2006) and are shown in Tables 1 and 2, respectively.
# E. coli ATCC 25922 = assay: MIC, broth macrodilution (CLSI), E. coli ATCC 25922; assay type: cell-based
# Experimental: as §1
# S. aureus ATCC 29213 = assay: MIC, broth macrodilution (CLSI), S. aureus ATCC 29213; assay type: cell-based, Staphylococcus aureus
# Experimental: as §1
# [2] = tested on: Acinetobacter baumanni (CAN-ICU 63169); assay: MIC, broth macrodilution (CLSI), A. baumannii; assay type: cell-based; details: A. baumannii CAN-ICU 63169
# Experimental: as §1
# [3] = tested on: Streptococcus pneumoniae ATCC 49619; assay: MIC, broth macrodilution (CLSI), S. pneumoniae ATCC 49619; assay type: cell-based
# Experimental: as §1
# [4] = tested on: Pseudomonas aeruginosa ATCC 27853; assay: MIC, broth macrodilution (CLSI), P. aeruginosa ATCC 27853; assay type: cell-based
# Experimental: as §1
# [5] = tested on: E. coli (Gentamicin-resistant) CAN-ICU 61714; assay: MIC, broth macrodilution (CLSI), gentamicin-resistant E. coli; assay type: cell-based; details: for Minimal Inhibitory Concentration (MIC): footnote ATCC 6174 (gentamicin resistant)
# Experimental: as §1
# [6] = tested on: methicillin-resistant Staphylococcus epidermidis (MRSE) CAN-ICU 61589; assay: MIC, broth macrodilution (CLSI), MRSE; assay type: cell-based; details: methicillin-resistant S. epidermidis, footnote (ATCC 14990)
# Experimental: as §1
# [7] = tested on: S. epidermidis ATCC 14990; assay: MIC, broth macrodilution (CLSI), S. epidermidis; assay type: cell-based, Staphylococcus epidermidis; details: for Minimal Inhibitory Concentration (MIC): footnote ATCC 1490
# Experimental: as §1
# [8] = tested on: P. aeruginosa (Gent-R) CAN-ICU 62308; assay: MIC, broth macrodilution (CLSI), P. aeruginosa CAN-ICU 62308; assay type: cell-based, Pseudomonas aeruginosa
# Experimental: as §1
# S. pneumoniae ATCC 13883 = assay: MIC, broth macrodilution (CLSI), S. pneumoniae ATCC 13883; assay type: cell-based
# Experimental: as §1
# [9] = tested on: methicillin-resistant Staphylococcus aureus (MRSA) ATCC 33592; assay: MIC, broth macrodilution (CLSI), MRSA ATCC 33592; assay type: cell-based; details: MRSA, methicillin-resistant S. aureus ATCC 33592
# Experimental: as §1
# [10] = tested on: E. coli (Amikacin MIC 32) CAN-ICU 63074; assay: MIC, broth macrodilution (CLSI), E. coli CAN-ICU 63074; assay type: cell-based
# Experimental: as §1
structure (smiles),measurement,setting,value
"NC[C@@H]1O[C@H](O[C@H]2[C@@H](O)[C@H](O[C@@H]3[C@@H](O)[C@H](N)C[C@H](N)[C@H]3O[C@H]3O[C@H](CN)[C@@H](O)[C@H](O)[C@H]3N)O[C@@H]2CO)[C@H](N)[C@@H](O)[C@@H]1O [Neomycin B, reference compound]",Minimal Inhibitory Concentration (MIC),[1],>512 µg/mL
same,Minimal Inhibitory Concentration (MIC),E. coli ATCC 25922,4 µg/mL
same,Minimal Inhibitory Concentration (MIC),S. aureus ATCC 29213,1 µg/mL
same,Minimal Inhibitory Concentration (MIC),[2],64 µg/mL
same,Minimal Inhibitory Concentration (MIC),[3],32 µg/mL
same,Minimal Inhibitory Concentration (MIC),[4],512 µg/mL
same,Minimal Inhibitory Concentration (MIC),[5],8 µg/mL
same,Minimal Inhibitory Concentration (MIC),[6],0.5 µg/mL
same,Minimal Inhibitory Concentration (MIC),[7],0.25 µg/mL
same,Minimal Inhibitory Concentration (MIC),[8],512 µg/mL
same,Minimal Inhibitory Concentration (MIC),S. pneumoniae ATCC 13883,1 µg/mL
same,Minimal Inhibitory Concentration (MIC),[9],256 µg/mL
NCCC(OCc1ccccc1)C(=O)NC1CC(N)C(OC2OC(CN)C(OCc3ccccc3)C(OCc3ccccc3)C2OCc2ccccc2)C(OCc2ccccc2)C1OC1OC(COCc2ccccc2)C(OCc2ccccc2)C(N)C1OCc1ccccc1.O=C(O)C(F)(F)F.O=C(O)C(F)(F)F.O=C(O)C(F)(F)F.O=C(O)C(F)(F)F (stereo not shown) [Compound 18],Minimal Inhibitory Concentration (MIC),[1],32 µg/mL
same,Minimal Inhibitory Concentration (MIC),E. coli ATCC 25922,16 µg/mL
same,Minimal Inhibitory Concentration (MIC),S. aureus ATCC 29213,4 µg/mL
same,Minimal Inhibitory Concentration (MIC),[2],32 µg/mL
same,Minimal Inhibitory Concentration (MIC),[3],32 µg/mL
same,Minimal Inhibitory Concentration (MIC),[4],128 µg/mL
same,Minimal Inhibitory Concentration (MIC),[5],16 µg/mL
same,Minimal Inhibitory Concentration (MIC),[6],1 µg/mL
same,Minimal Inhibitory Concentration (MIC),[10],16 µg/mL
same,Minimal Inhibitory Concentration (MIC),[7],1 µg/mL
same,Minimal Inhibitory Concentration (MIC),[8],64 µg/mL
same,Minimal Inhibitory Concentration (MIC),S. pneumoniae ATCC 13883,16 µg/mL
same,Minimal Inhibitory Concentration (MIC),[9],4 µg/mL
NCC1OC(OC2C(N)CC(N)C(OC3OC(COCc4ccc(Cl)cc4)C(OCc4ccc(Cl)cc4)C(N)C3OCc3ccc(Cl)cc3)C2OCc2ccc(Cl)cc2)C(OCc2ccc(Cl)cc2)C(OCc2ccc(Cl)cc2)C1OCc1ccc(Cl)cc1.O=C(O)C(F)(F)F.O=C(O)C(F)(F)F.O=C(O)C(F)(F)F.O=C(O)C(F)(F)F (stereo not shown) [Compound 16],Minimal Inhibitory Concentration (MIC),[1],>128 µg/mL
same,Minimal Inhibitory Concentration (MIC),E. coli ATCC 25922,128 µg/mL
same,Minimal Inhibitory Concentration (MIC),S. aureus ATCC 29213,32 µg/mL
same,Minimal Inhibitory Concentration (MIC),[2],>128 µg/mL
same,Minimal Inhibitory Concentration (MIC),[3],64 µg/mL
same,Minimal Inhibitory Concentration (MIC),[4],>128 µg/mL
same,Minimal Inhibitory Concentration (MIC),[5],128 µg/mL
same,Minimal Inhibitory Concentration (MIC),[6],16 µg/mL
same,Minimal Inhibitory Concentration (MIC),[10],64 µg/mL
same,Minimal Inhibitory Concentration (MIC),[7],32 µg/mL
same,Minimal Inhibitory Concentration (MIC),[8],>128 µg/mL
same,Minimal Inhibitory Concentration (MIC),S. pneumoniae ATCC 13883,>128 µg/mL
same,Minimal Inhibitory Concentration (MIC),[9],32 µg/mL
NCC1OC(OC2C(N)CC(N)C(OC3OC(COCc4ccccc4)C(OCc4ccccc4)C(N)C3OCc3ccccc3)C2OCc2ccccc2)C(OCc2ccccc2)C(OCc2ccccc2)C1OCc1ccccc1.O=C(O)C(F)(F)F.O=C(O)C(F)(F)F.O=C(O)C(F)(F)F.O=C(O)C(F)(F)F (stereo not shown) [Compound 15],Minimal Inhibitory Concentration (MIC),[1],>64 µg/mL
same,Minimal Inhibitory Concentration (MIC),E. coli ATCC 25922,32 µg/mL
same,Minimal Inhibitory Concentration (MIC),S. aureus ATCC 29213,8 µg/mL
same,Minimal Inhibitory Concentration (MIC),[2],>64 µg/mL
same,Minimal Inhibitory Concentration (MIC),[3],32 µg/mL
same,Minimal Inhibitory Concentration (MIC),[4],>64 µg/mL
same,Minimal Inhibitory Concentration (MIC),[5],32 µg/mL
same,Minimal Inhibitory Concentration (MIC),[6],8 µg/mL
same,Minimal Inhibitory Concentration (MIC),[10],16 µg/mL
same,Minimal Inhibitory Concentration (MIC),[7],4 µg/mL
same,Minimal Inhibitory Concentration (MIC),[8],>64 µg/mL
same,Minimal Inhibitory Concentration (MIC),S. pneumoniae ATCC 13883,>64 µg/mL
same,Minimal Inhibitory Concentration (MIC),[9],8 µg/mL
CCCCCCNC(=O)OCC1OC(OC2C(OC(=O)NCCCCCC)C(N)CC(N)C2OC2OC(CN)C(OC(=O)NCCCCCC)C(OC(=O)NCCCCCC)C2N)C(OC(=O)NCCCCCC)C1OC1OC(CN)C(OC(=O)NCCCCCC)C(OC(=O)NCCCCCC)C1N.O=C(O)C(F)(F)F.O=C(O)C(F)(F)F.O=C(O)C(F)(F)F.O=C(O)C(F)(F)F.O=C(O)C(F)(F)F.O=C(O)C(F)(F)F (stereo not shown) [Compound 3],Minimal Inhibitory Concentration (MIC),[1],>256 µg/mL
same,Minimal Inhibitory Concentration (MIC),E. coli ATCC 25922,8 µg/mL
same,Minimal Inhibitory Concentration (MIC),S. aureus ATCC 29213,2 µg/mL
same,Minimal Inhibitory Concentration (MIC),[2],>256 µg/mL
same,Minimal Inhibitory Concentration (MIC),[3],8 µg/mL
same,Minimal Inhibitory Concentration (MIC),[4],>256 µg/mL
same,Minimal Inhibitory Concentration (MIC),[5],8 µg/mL
same,Minimal Inhibitory Concentration (MIC),[6],2 µg/mL
same,Minimal Inhibitory Concentration (MIC),[10],32 µg/mL
same,Minimal Inhibitory Concentration (MIC),[7],1 µg/mL
same,Minimal Inhibitory Concentration (MIC),[8],256 µg/mL
same,Minimal Inhibitory Concentration (MIC),S. pneumoniae ATCC 13883,4 µg/mL
same,Minimal Inhibitory Concentration (MIC),[9],256 µg/mL
"NC[C@H]1O[C@H](O[C@H]2[C@H](O)[C@@H](O[C@H]3O[C@H](CO)[C@@H](O)[C@H](N)[C@H]3O)[C@H](N)C[C@@H]2N)[C@H](O)[C@@H](O)[C@@H]1O [Kanamycin A, reference compound]",Minimal Inhibitory Concentration (MIC),[1],>512 µg/mL
same,Minimal Inhibitory Concentration (MIC),E. coli ATCC 25922,8 µg/mL
same,Minimal Inhibitory Concentration (MIC),S. aureus ATCC 29213,4 µg/mL
same,Minimal Inhibitory Concentration (MIC),[2],32 µg/mL
same,Minimal Inhibitory Concentration (MIC),[3],8 µg/mL
same,Minimal Inhibitory Concentration (MIC),[4],>512 µg/mL
same,Minimal Inhibitory Concentration (MIC),[5],16 µg/mL
same,Minimal Inhibitory Concentration (MIC),[6],128 µg/mL
same,Minimal Inhibitory Concentration (MIC),[10],32 µg/mL
same,Minimal Inhibitory Concentration (MIC),[7],2 µg/mL
same,Minimal Inhibitory Concentration (MIC),[8],>512 µg/mL
same,Minimal Inhibitory Concentration (MIC),S. pneumoniae ATCC 13883,1 µg/mL
same,Minimal Inhibitory Concentration (MIC),[9],>512 µg/mL
"NCC[C@H](O)C(=O)N[C@@H]1C[C@H](N)[C@@H](O[C@H]2O[C@H](CN)[C@@H](O)[C@H](O)[C@H]2O)[C@H](O)[C@H]1O[C@H]1O[C@H](CO)[C@@H](O)[C@H](N)[C@H]1O [Amikacin, reference compound]",MIC,"[1]; Stenotrophomonas maltophilia, read-out: Minimal Inhibitory Concentration (MIC)",> 512 µg/mL
same,MIC,"E. coli ATCC 25922; Escherichia coli, ATCC25922, read-out: Minimal Inhibitory Concentration (MIC)",4 µg/mL
same,MIC,"S. aureus ATCC 29213; Staphylococcus aureus, ATCC29213, read-out: Minimal Inhibitory Concentration (MIC)",4 µg/mL
same,MIC,[2]; read-out: Minimal Inhibitory Concentration (MIC),128 µg/mL
same,MIC,"[3]; Streptococcus pneumoniae, ATCC49619, read-out: Minimal Inhibitory Concentration (MIC)",8 µg/mL
same,MIC,"[4]; Pseudomonas aeruginosa, ATCC27853, read-out: Minimal Inhibitory Concentration (MIC)",4 µg/mL
same,MIC,"[5]; Escherichia coli, ATCC6174, footnote ATCC 6174 (gentamicin resistant), read-out: Minimal Inhibitory Concentration (MIC)",2 µg/mL
same,MIC,"[6]; Staphylococcus epidermidis, ATCC 14990 / MRSE, read-out: Minimal Inhibitory Concentration (MIC)",2 µg/mL
same,MIC,"[10]; Escherichia coli, read-out: Minimal Inhibitory Concentration (MIC)",32 µg/mL
same,MIC,"[7]; Staphylococcus epidermidis, ATCC 1490 / ATCC 14990, footnote ATCC 1490, read-out: Minimal Inhibitory Concentration (MIC)",1 µg/mL
same,MIC,"[8]; Pseudomonas aeruginosa, read-out: Minimal Inhibitory Concentration (MIC)",128 µg/mL
same,MIC,"S. pneumoniae ATCC 13883; Streptococcus pneumoniae, ATCC13883, read-out: Minimal Inhibitory Concentration (MIC)",0.5 µg/mL
same,MIC,"[9]; Staphylococcus aureus, read-out: Minimal Inhibitory Concentration (MIC)",8 µg/mL
CCCCCCNC(=O)OCC1OC(OC2C(N)CC(N)C(OC3OC(CN)C(OC(=O)NCCCCCC)C(OC(=O)NCCCCCC)C3OC(=O)NCCCCCC)C2OC(=O)NCCCCCC)C(OC(=O)NCCCCCC)C(N)C1OC(=O)NCCCCCC.O=C(O)C(F)(F)F.O=C(O)C(F)(F)F.O=C(O)C(F)(F)F.O=C(O)C(F)(F)F (stereo not shown) [Compound 6],Minimal Inhibitory Concentration (MIC),[1],>256 µg/mL
same,Minimal Inhibitory Concentration (MIC),E. coli ATCC 25922,128 µg/mL
same,Minimal Inhibitory Concentration (MIC),S. aureus ATCC 29213,32 µg/mL
same,Minimal Inhibitory Concentration (MIC),[2],>256 µg/mL
same,Minimal Inhibitory Concentration (MIC),[3],128 µg/mL
same,Minimal Inhibitory Concentration (MIC),[4],128 µg/mL
same,Minimal Inhibitory Concentration (MIC),[5],64 µg/mL
same,Minimal Inhibitory Concentration (MIC),[6],32 µg/mL
same,Minimal Inhibitory Concentration (MIC),[10],64 µg/mL
same,Minimal Inhibitory Concentration (MIC),[7],16 µg/mL
same,Minimal Inhibitory Concentration (MIC),[8],32 µg/mL
same,Minimal Inhibitory Concentration (MIC),S. pneumoniae ATCC 13883,>256 µg/mL
same,Minimal Inhibitory Concentration (MIC),[9],64 µg/mL
